Measured values taken from the supplement of paper PMC11919725.

Columns and labels:
Jurkat [1] = assay: confluency relative to DMSO, 18 h (ratio); higher = more viable
In short: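 Jurkat cells and primary CD4+/CD8+ T cells, naive or activated with CD3/CD28 Dynabeads for 48 h, were treated with compound (1 nM–10 µM, log10 steps) for 18 h at 37 °C. Following transfer of 100 µl into 96-well plates with IncuCyte Cytotox Dye and alamarBlue, wells were imaged at ×10, five images per well, each hour for 3 h. Confluency, obtained with the IncuCyte Basic Analyzer from phase-contrast images, is normalised to the mean of the control wells.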

Jurkat [2] = assay: metabolic activity relative to DMSO, 18 h (ratio); higher = more viable
In short: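 Jurkat or primary CD4+/CD8+ T cells (naive, or activated 48 h with CD3/CD28 Dynabeads) were treated 18 h with compound at 1 nM–10 µM (log10 steps) at 37 °C, 5% CO2. Then 100 µl of suspension went into 96-well plates with alamarBlue (10% v/v final). After 3.5 h, fluorescence was read on a FluoStar Omega (excitation 544 nm, emission 584 nm). Metabolic activity is normalised to mean DMSO controls.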

Jurkat [3] = assay: cytotoxicity relative to DMSO, 18 h (ratio); higher = less cell death (drugs called cytotoxic fall below 1)
In short: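 Fluorescence was imaged at ×10, five images per well, every hour for 3 h, in 96-well plates holding 100 µl of treated cell suspension and IncuCyte Cytotox Dye at 250 nM final. Before plating, Jurkat cells or primary CD4+/CD8+ T cells (naive, or activated 48 h with CD3/CD28 Dynabeads) had been treated for 18 h with compound across 1 nM–10 µM in log10 steps at 37 °C, 5% CO2. Cytotoxicity values were based on these IncuCyte signals after confluency correction and normalisation to the mean of control wells.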

| Compound | confluency (Jurkat [1]; 1 nM) | confluency (Jurkat [1]; 10 nM) | confluency (Jurkat [1]; 100 nM) | confluency (Jurkat [1]; 1000 nM) | confluency (Jurkat [1]; 10000 nM) | metabolic activity (Jurkat [2]; 1 nM) | metabolic activity (Jurkat [2]; 10 nM) | metabolic activity (Jurkat [2]; 100 nM) | metabolic activity (Jurkat [2]; 1000 nM) | metabolic activity (Jurkat [2]; 10000 nM) | cytotoxicity (Jurkat [3]; 1 nM) | cytotoxicity (Jurkat [3]; 10 nM) | cytotoxicity (Jurkat [3]; 100 nM) | cytotoxicity (Jurkat [3]; 1000 nM) | cytotoxicity (Jurkat [3]; 10000 nM) |
| --- | --- | --- | --- | --- | --- | --- | --- | --- | --- | --- | --- | --- | --- | --- | --- |
| COC(=O)c1ccc2c(C(=Nc3ccc(N(C)C(=O)CN4CCN(C)CC4)cc3)c3ccccc3)c(O)[nH]c2c1 [Nintedanib] | 0.986 | 0.955 | 0.981 | 0.832 | 0.566 | 1.01 | 0.93 | 0.949 | 0.919 | 0.827 | 0.929 | 0.948 | 0.988 | 0.81 | 0.537 |
| NC(=O)c1cccc2cn(-c3ccc(C4CCCNC4)cc3)nc12 (stereo not given) [Niraparib] | 1.07 | 1.04 | 1.06 | 1.05 | 0.915 | 0.947 | 0.907 | 1.17 | 0.992 | 1.01 | 1.11 | 1.01 | 1.1 | 1.03 | 0.94 |
| COC(=O)Nc1nc2ccc(C(=O)c3cccs3)cc2[nH]1 [Nocodazole] | 1.02 | 1.06 | 1.14 | 0.907 | 0.731 | 0.881 | 1.08 | 0.621 | 0.589 | 0.554 | 1.03 | 1.08 | 1.02 | 0.807 | 0.59 |
| COc1ccc(C2=NC(c3ccc(Cl)cc3)C(c3ccc(Cl)cc3)N2C(=O)N2CCNC(=O)C2)c(OC(C)C)c1 (stereo not given) [Nutlin-3] | 0.971 | 0.92 | 1.01 | 0.98 | 0.963 | 0.983 | 1.01 | 1.02 | 0.991 | 0.84 | 0.993 | 0.951 | 0.962 | 0.985 | 0.917 |
| O=C(c1cc(Cc2n[nH]c(=O)c3ccccc23)ccc1F)N1CCN(C(=O)C2CC2)CC1 [Olaparib] | 0.954 | 1.02 | 0.974 | 0.975 | 0.969 | 1.08 | 1.09 | 0.911 | 0.899 | 1 | 0.942 | 1.03 | 1 | 1.01 | 0.977 |
| COc1ncc(-c2ccc3nccc(-c4ccnnc4)c3c2)cc1NS(=O)(=O)c1ccc(F)cc1F [Omipalisib] | 0.98 | 0.797 | 0.785 | 0.904 | 1.12 | 1.1 | 0.966 | 0.621 | 0.524 | 0.563 | 1.04 | 0.823 | 0.728 | 0.735 | 0.923 |
| Nc1nc2cc(CCC3CC(n4ccc5c(N)ncnc54)C(O)C3O)ccc2cc1Br (stereo not given) [Onametostat] | 0.916 | 0.951 | 0.973 | 0.978 | 0.985 | 1.01 | 0.982 | 1.07 | 0.979 | 0.975 | 0.949 | 0.883 | 0.975 | 0.884 | 0.982 |
| COC1CCC(N2C(=O)CNc3ncc(-c4ccc(C(C)(C)O)nc4)nc32)CC1 (stereo not given) [Onatasertib] | 1.12 | 1.05 | 1.07 | 0.9 | 0.675 | 0.857 | 0.964 | 0.935 | 0.881 | 0.73 | 1.12 | 1.07 | 1.11 | 0.859 | 0.586 |
| O=C(O)C(=O)O.[NH-]C1CCCCC1[NH-].[Pt+2] (stereo not given) [Oxaliplatin] | 0.84 | 0.755 | 1.01 | 0.989 | 0.969 | 0.909 | 0.865 | 0.936 | 0.884 | 0.991 | 0.835 | 0.765 | 1.05 | 1.04 | 1.1 |
| CN(C)CC(=O)Nc1ccc2[nH]c(=O)c3ccccc3c2c1 [PJ34] | 0.971 | 0.933 | 0.94 | 0.99 | 0.968 | 0.99 | 1.03 | 1.04 | 0.955 | 1.12 | 0.966 | 0.947 | 0.963 | 0.932 | 1.17 |
| CC(=O)OC1C(=O)C2(C)C(O)CC3OCC3(OC(C)=O)C2C(OC(=O)c2ccccc2)C2(O)CC(OC(=O)C(O)C(NC(=O)c3ccccc3)c3ccccc3)C(C)=C1C2(C)C (stereo not given) [Paclitaxel] | 1 | 0.989 | 0.964 | 0.939 | 0.81 | 1.05 | 0.568 | 0.576 | 0.534 | 0.744 | 1.16 | 0.953 | 0.883 | 0.854 | 0.797 |
| CC(=O)c1c(C)c2cnc(Nc3ccc(N4CCNCC4)cn3)nc2n(C2CCCC2)c1=O [Palbociclib] | 0.829 | 0.902 | 0.974 | 1.04 | 0.813 | 0.877 | 0.988 | 0.96 | 0.995 | 0.88 | 0.851 | 0.93 | 0.95 | 1.03 | 0.793 |
| Nc1nc2[nH]cc(CCc3ccc(C(=O)NC(CCC(=O)O)C(=O)O)cc3)c2c(=O)[nH]1 (stereo not given) [Pemetrexed] | 1 | 0.962 | 0.845 | 0.839 | 0.835 | 1.02 | 1.11 | 1.06 | 1.09 | 0.853 | 0.992 | 0.997 | 0.837 | 0.821 | 0.75 |
| CC(=O)N1CCC(Nc2cc(C(=O)NCC(O)CN3CCc4ccccc4C3)ncn2)CC1 (stereo not given) [Pemrametostat] | 1.05 | 1.06 | 1.01 | 1.03 | 0.947 | 0.952 | 0.904 | 0.931 | 0.95 | 1.2 | 1.07 | 1.09 | 1.06 | 1.05 | 1.05 |
| COc1ccc(Cl)c(Nc2nc3ccccc3nc2NS(=O)(=O)c2cccc(NC(=O)C(C)(C)N)c2)c1 [Pilaralisib] | 0.978 | 1.01 | 1.01 | 0.994 | 0.976 | 1.02 | 1.03 | 1.03 | 0.939 | 0.877 | 1.06 | 1.11 | 1.1 | 0.959 | 0.942 |
